Reference: patent US20250129028A1, “COMPOUNDS AND METHODS FOR YAP/TEAD MODULATION AND INDICATIONS THEREFOR” (Opna Bio SA, priority 2022, published 2025)

system: TEAD-dependent transcription; test: TEAD-dependent transcription cell-based reporter assay (MSTO-211H+12XGTIIC luciferase); parameters: species or system human; conditions: Homo sapiens; MSTO-211H+12XGTIIC cell line, luciferase signal normalized to cell viability, 24 hours compound incubation; read-out: MSTO-211H GMean IC50 (uM) Cell Assay Reporter Cell Variant: TEAD
Method in brief: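 MSTO-211H mesothelioma cells stably carrying a 12xGTIIC TEAD-response-element luciferase reporter, treated with serial compound dilutions for 24 h at 37 °C. Luminescence normalized to CellTiter-Fluor viability signal; % inhibition versus DMSO and 20 μM K-975 controls, IC50 by nonlinear regression.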

Q: How did the IC50 turn out when `CN(C)S(=O)(=O)NCC(=O)N1CCc2ccc(Oc3ccc(C(F)(F)F)c(F)c3)cc2C1` [P-0116, N,N-dimethyl-N′-(2-(7-(3-fluoro-4-(trifluoro-methyl)phenoxy)-3,4-dihydroisoquinolin-2(1H)-yl)-2-oxoethyl)-sulfamide] was run?
A: 0.001 to 10 µM

Q: For `NS(=O)(=O)CCC(=O)N1CCc2ccc(Oc3ccc(C(F)(F)F)c(F)c3)cc2C1` [P-0123, 3-(7-(3-fluoro-4-(trifluoromethyl)phen-oxy)-3,4-dihydroisoquin-olin-2(1H)-yl)-3-oxopro-pane-1-sulfonamide], which IC50 is on record?
A: 0.001 to 10 µM

Q: How did the IC50 turn out when `O=C(Cc1cnc[nH]1)N1CCc2c(cccc2-c2ccc(C(F)(F)F)cc2)C1` [P-0275, 2-(1H-imidazol-5-yl)-1-(5-(4-(trifluoromethyl)-phenyl)-3,4-dihydroiso-quinolin-2(1H)-yl)ethan-1-one] was run?
A: 0.001 to 10 µM

Q: Which IC50 does the source give for `CCCCNC(=O)N1CCc2ccc(Oc3ccc(C(F)(F)F)cc3)cc2C1` [P-0032, N-butyl-7-(4-(trifluoro-methyl)phenoxy)-3,4-dihydroisoquinoline-2(1H)-carboxamide] here?
A: 0.001 to 10 µM

Q: `O=C(Cc1ccn[nH]1)N1CCc2ccc(Oc3ccc(C(F)(F)F)c(F)c3)cc2C1` [P-0149, 1-(7-(3-fluoro-4-(trifluoromethyl)phen-oxy)-3,4-dihydroiso-quinolin-2(1H)-yl)-2-(1H-pyrazol-5-yl)-ethan-1-one] was tested. Which IC50 did it give?
A: 0.001 to 10 µM

Q: How did the IC50 turn out when `CS(=O)(=O)CCNC(=O)N1CCc2c(cccc2-c2ccc(C(F)(F)F)cc2)C1` [P-0276, N-(2-(methylsulfonyl)-ethyl)-5-(4-(trifluoro-methyl)phenyl)-3,4-dihydroisoquinoline-2(1H)-carboxamide] was run?
A: 0.001 to 10 µM

Q: With `NS(=O)(=O)N1CCc2ccc(Oc3ccc(C(F)(F)F)cc3)cc2C1` [P-0001, 7-(4-(trifluoromethyl)-phenoxy)-3,4-dihydroiso-quinoline-2(1H)-sulfon-amide] as the compound, how does the IC50 read?
A: 0.001 to 10 µM

Q: Which IC50 does the source give for `O=C(CC1CCOCC1)N1CCc2ccc(Oc3ccc(C(F)(F)F)cc3)cc2C1` [P-0087, 2-(tetrahydro-2H-pyran-4-yl)-1-(7-(4-(trifluoro-methyl)phenoxy)-3,4-dihydroisoquinolin-2(1H)-yl)ethan-1-one] here?
A: 0.001 to 10 µM

Q: For `O=C1NC(=O)C(CC(=O)N2CCc3ccc(Oc4ccc(C(F)(F)F)cc4)cc3C2)N1` (stereo not drawn) [P-0083, 5-(2-oxo-2-(7-(4-(trifluoromethyl)phen-oxy)-3,4-dihydroisoquin-olin-2(1H)-yl)ethyl)imid-azolidine-2,4-dione], which IC50 is on record?
A: 0.001 to 10 µM

Q: Which IC50 does the source give for `NS(=O)(=O)CCC(=O)N1CCc2ccc(Oc3ccc(C(F)(F)F)cc3)cc2C1` [P-0048, 3-oxo-3-(7-(4-(trifluoro-methyl)phenoxy)-3,4-dihydroisoquinolin-2(1H)-yl)propane-1-sulfonamide] here?
A: 0.001 to 10 µM

Q: How did the IC50 turn out when `CNC(=O)c1cncc(N2CCc3ccc(Oc4ccc(C(F)(F)F)cc4)cc3C2)n1` [P-0231, N-methyl-6-(7-(4-(trifluoromethyl)phen-oxy)-3,4-dihydroisoquin-olin-2(1H)-yl)pyrazine-2-carboxamide] was run?
A: 0.001 to 10 µM

Q: Which IC50 does the source give for `O=C(CCS(=O)(=O)C(F)(F)F)N1CCc2c(cccc2Oc2ccc(C(F)(F)F)cc2)C1` [P-0254, 1-(5-(4-(trifluorometh-yl)phenoxy)-3,4-dihydro-isoquinolin-2(1H)-yl)-3-((trifluoromethyl)sul-fonyl)propan-1-one] here?
A: 0.001 to 10 µM

Q: For `O=C(Cc1cnc[nH]1)N1CCc2ccc(Oc3ccc(C(F)(F)F)c(F)c3)cc2C1` [P-0150, 1-(7-(3-fluoro-4-(trifluoromethyl)phen-oxy)-3,4-dihydroisoquin-olin-2(1H)-yl)-2-(1H-imidazol-5-yl)ethan-1-one], which IC50 is on record?
A: 0.001 to 10 µM

Q: Which IC50 does the source give for `CS(=O)(=O)CCC(=O)N1CCc2ccc(Oc3ccc(C(F)(F)F)cc3)cc2C1C1CCC(C(F)(F)F)CC1` (stereo not drawn) [P-0212, 3-(methylsulfonyl)-1-(1-(4-(trifluoromethyl)-cyclohexyl)-7-(4-(trifluoromethyl)phen-oxy)-3,4-dihydroisoquin-olin-2(1H)-yl)propan-1-one] here?
A: 0.001 to 10 µM

Q: With `O=C(O)CCC(=O)N1CCc2ccc(Oc3ccc(C(F)(F)F)cc3)cc2C1` [P-0057, 4-oxo-4-(7-(4-(trifluoro-methyl)phenoxy)-3,4-dihydroisoquinolin-2(1H)-yl)butanoic acid] as the compound, how does the IC50 read?
A: 0.001 to 10 µM

Q: `O=C(CNC(=O)C(F)(F)F)N1CCc2ccc(Oc3ccc(C(F)(F)F)cc3)cc2C1` [P-0100, 2,2,2-trifluoro-N-(2-oxo-2-(7-(4-(trifluoromethyl)-phenoxy)-3,4-dihydroiso-quinolin-2(1H)-yl)ethyl)-acetamide] was tested. Which IC50 did it give?
A: 0.001 to 10 µM

Q: How did the IC50 turn out when `O=C(Nc1ccccc1)N1CCc2c(cccc2Oc2ccc(C(F)(F)F)cc2)C1` [P-0237, N-phenyl-5-(4-(trifluoro-methyl)phenoxy)-3,4-dihydroisoquinoline-2(1H)-carboxamide] was run?
A: 0.001 to 10 µM

Q: Which IC50 does the source give for `CN1CCC(C(=O)N2CCc3ccc(Oc4ccc(C(F)(F)F)c(F)c4)cc3C2)C1` (stereo not drawn) [P-0105, (7-(3-fluoro-4-(trifluoro-methyl)phenoxy)-3,4-dihydroisoquinolin-2(1H)-yl)(1-methylpyr-rolidin-3-yl)methanone] here?
A: 0.001 to 10 µM

Q: For `O=C(Cc1c[nH]cn1)N1CCc2ccc(Oc3ccc(C(F)(F)F)cc3)cc2C1` [P-0164, 2-(1H-imidazol-4-yl)-1-(7-(4-(trifluoromethyl)-phenoxy)-3,4-dihydroiso-quinolin-2(1H)-yl)ethan-1-one], which IC50 is on record?
A: 0.001 to 10 µM

Q: `CS(=O)(=O)NCCC(=O)N1CCc2ccc(Oc3ccc(C(F)(F)F)cc3)cc2C1` [P-0101, N-(3-oxo-3-(7-(4-(trifluoromethyl)phen-oxy)-3,4-dihydroisoquin-olin-2(1H)-yl)propyl)-methanesulfonamide] was tested. Which IC50 did it give?
A: 0.001 to 10 µM

Q: Which IC50 does the source give for `N#Cc1ccncc1NC(=O)N1CCc2ccc(Oc3ccc(C(F)(F)F)cc3)cc2C1` [P-0064, N-(4-Cyanopyridin-3-yl)-7-(4-(trifluoromethyl)phenoxy)-3,4-dihydroisoquinoline-2(1H)-carboxamide] here?
A: 0.001 to 10 µM

Q: `O=C(c1cc(C(F)F)[nH]n1)N1CCc2ccc(Oc3ccc(C(F)(F)F)cc3)cc2C1` [P-0103, (5-(difluoromethyl)-1H-pyrazol-3-yl)(7-(4-(trifluoromethyl)phen-oxy)-3,4-dihydroisoquin-olin-2(1H)-yl)methanone] was tested. Which IC50 did it give?
A: 0.001 to 10 µM

Q: For `CS(=O)(=O)CCC(=O)N1CCc2c(cccc2Oc2ccc(C(F)(F)F)cc2)C1` [P-0269, 3-(methylsulfonyl)-1-(5-(4-(trifluoromethyl)phen-oxy)-3,4-dihydroisoquin-olin-2(1H)-yl)propan-1-one], which IC50 is on record?
A: 0.001 to 10 µM

Q: `Nc1nc(C(=O)N2CCc3c(cccc3Oc3ccc(C(F)(F)F)cc3)C2)cs1` [P-0240, (2-aminothiazol-4-yl)(5-(4-(trifluoromethyl)phen-oxy)-3,4-dihydroisoquin-olin-2(1H)-yl)methanone] was tested. Which IC50 did it give?
A: 0.001 to 10 µM

Q: Which IC50 does the source give for `O=C(Cc1cn[nH]c1)N1CCc2ccc(Oc3ccc(C(F)(F)F)cc3)cc2C1` [P-0099, 2-(1H-pyrazol-4-yl)-1-(7-(4-(trifluoromethyl)phen-oxy)-3,4-dihydroisoquin-olin-2(1H)-yl)ethan-1-one] here?
A: 10 to 100 µM

Q: Which IC50 does the source give for `NS(=O)(=O)CC(=O)N1CCc2ccc(Oc3ccc(C(F)(F)F)cc3)cc2C1` [P-0125, 2-oxo-2-(7-(4-(trifluoro-methyl)phenoxy)-3,4-dihydroisoquinolin-2(1H)-yl)ethane-1-sul-fonamide] here?
A: 0.001 to 10 µM

Q: How did the IC50 turn out when `O=C(Cc1ncc[nH]1)N1CCc2ccc(Oc3ccc(C(F)(F)F)c(F)c3)cc2C1` [P-0152, 1-(7-(3-fluoro-4-(trifluoromethyl)phen-oxy)-3,4-dihydroisoquin-olin-2(1H)-yl)-2-(1H-imidazol-2-yl)ethan-1-one] was run?
A: 0.001 to 10 µM
